# Assay: Human HepG2 cell viability assay in 384 well format
# Assay type: toxicity, cell-based
# Design: dose 125 nL, time 70.5 hour; concentration not given beside the values
# Settings: HepG2 cells, read-out: Inhibition
row,Structure (SMILES),cytotoxicity at 70.5 h [%]
1,Cc1ccc(C)c(NCc2nc3n(n2)CCCCC3)c1,-15.6
2,Cn1cc(CN2CCS(=O)(=O)C(C)(C)C2)cn1,-9.13
3,COc1ccc(F)c(-c2nccn2CCN2CCCC2)c1,33.7
4,CCCc1cc(C(=O)N2Cc3cnc(C(C)(C)C)nc3C2)ccn1,0.0745
5,CCNC(=O)CN(CC)C(=O)c1cccc(Nc2cnn(C)c2)c1,6.01
6,COc1ccc(CCCNCc2c(C)nn(C)c2N(C)C)cc1OC,4.5
7,CCc1cnc(C)nc1NC(CC)c1ncnn1CC (stereo not given),-5.6
8,CC(=O)N1[C@H](CN(C)C)C[C@@H]2CN(C(=O)c3ccsc3)CC[C@@H]21,-12.2
9,Cc1ccc2nc(C3CCCN(CC(C)C)C3)nc(O)c2c1 (stereo not given),-2.98
10,CCOc1cc(C(=O)N2CCCC(c3noc(C)n3)C2)ccn1 (stereo not given),-12.6
11,CCOc1nc2cnccc2n(CC(=O)NCCc2ccccc2)c1=O,28.7
12,Cc1nc(CO[C@@H]2CN(Cc3nccs3)[C@@H]3COC[C@@H]32)cs1,-6.11
13,COc1ccc(Cc2ncc3c(n2)CN(C(=O)C(C)(C)OC)C3)cc1,-6.62
14,CC(=O)Nc1nc(CN2CCOC(Cn3nc(C)cc3C)C2)cs1 (stereo not given),10.6
15,Cc1cccc(SC2CCN(C(=O)CCCS(N)(=O)=O)CC2)c1,-6.67
16,Cn1cc(CN2CC[C@H]3OCC[C@@H](C(=O)Nc4cnccn4)[C@@H]3C2)cn1,50.6
17,O=C(c1ncn2c(C3CCN(CC4CC4)CC3)ccnc12)N1CCCC1,0.745
18,N#Cc1ccc(OCCOc2ccccc2C(=O)N2CCOCC2)cc1,-9.24
19,Cc1ccc(C)c2c(O)cc(CNCC(N)=O)nc12,-0.585
20,Cc1noc(C)c1C(=O)N(C)C(C)c1ccncc1 (stereo not given),-5.68
21,N#Cc1ccc(F)c(CN(CC(=O)N2CCCC2)CC2CCCO2)c1 (stereo not given),0.0703
22,Cc1cccc(NS(=O)(=O)c2ccc(C#N)nc2)c1C#N,-4.92
23,CN(CC1(C)COC1)C(=O)c1cc(-c2cnn(C)c2)nc2ccccc12,-6.09

row,Structure (SMILES),cytotoxicity at 70.5 h [%]
1,CS(=O)(=O)NCc1cc2n(n1)CCCN(Cc1cc3ccccc3o1)C2,-5.83
2,CN(C)CCNC(=O)c1cc2n(n1)CCN(C(=O)CC(C)(C)C)C2,-9.74
3,COc1ccc(C[C@H]2CN(C(=O)C3CC3)CC[C@H]2OC)cc1,21.5
4,O=C1N(Cc2ccccn2)C[C@H]2CN(S(=O)(=O)c3ccccc3)CCN12,-0.174
5,COCCN1CCC(CNc2nc3ccccc3o2)CC1,1.47
6,COC1CN(CCO)S(=O)(=O)c2ccccc21 (stereo not given),-7.83
7,CCc1nnc(N2C[C@@H](NC(C)=O)[C@H](c3ccc(C)o3)C2)s1,2.74
8,Cn1cccc(NC(=O)N2CCC(COCc3ccccc3)C2)c1=O (stereo not given),7.11
9,O=C(CCO)N1CC2(CCN(c3ccccc3)C2)C1,-1.72
10,CN1CCCC1CNC(=O)CCCOc1cccc(Br)c1 (stereo not given),17.7
11,O=S(=O)(Nc1cn[nH]c1)c1ccc(F)c(Br)c1,-4.68
12,Cc1cc(C(=O)NCC2CCCC2)c(C)n1-c1cccnc1,-6.04
13,Fc1ccc(-c2cnc(CNC3CCc4ncnn4C3)o2)cc1 (stereo not given),-8.23
14,CCC(O)Cn1cc(C2=CCN(Cc3ccc(OC)cc3)CC2)cn1 (stereo not given),-11.9
15,COCc1cccc(CNC(=O)c2c(C)noc2C(C)C)c1,10.6
16,CC(=O)N1CCC(N2CCOC[C@H]2c2nc(-c3ccccc3)c[nH]2)CC1,-2.43
17,Cc1ccccc1OC1CCN(C(=O)c2c[nH]c(=O)[nH]c2=O)CC1,-0.618
18,CCc1cnc(C)nc1NCC(O)CN1CCCCCC1 (stereo not given),-4.26
19,CC(c1ccc(F)cc1)n1ccnc1-c1cc2n(n1)CCCNC2 (stereo not given),-6.66
20,CCN(CC)Cc1nc2c(o1)CN(S(=O)(=O)c1cccs1)C2,-10.4
21,CCn1cnnc1C1CCN(C(=O)COc2ccc(Cl)cc2)CC1,-9.99
22,COc1ccc(OC2CCN(C(=O)C3CCCN(C)C3)CC2)cc1 (stereo not given),-0.196
23,CNC(=O)c1sccc1S(=O)(=O)NC,-6.63

row,Structure (SMILES),cytotoxicity at 70.5 h [%]
1,CN(C)CCCN(Cc1cnn(C)c1)Cc1ccco1,-2.57
2,CN(C)CCO[C@H]1CN(C(=O)c2ccc[nH]2)[C@@H]2COC[C@H]12,-11.1
3,O=C(CCc1ccsc1)N1CCC(Cc2ccc(CO)cc2)C1 (stereo not given),-3.39
4,CCOCc1nn(C)c2c1CN(C(=O)c1ccno1)CC2,-4.99
5,CC(C)=CCCN1CCN(C)C2(CCC(=O)N(C)CC2)C1 (stereo not given),-6.95
6,CC[C@H](C)[C@H](NC(=O)c1ccccc1-n1cnnn1)C(=O)OC,33.9
7,COc1ccnc(NC(=O)c2cnccn2)c1,-7.62
8,CC(=O)Nc1ccc(Cl)c(C(=O)N(C)Cc2nc(C)c[nH]2)c1,-8.28
9,CNC(=O)CS(=O)(=O)Cc1coc(-c2ccc(OC)cc2)n1,-12.7
10,CN(C(=O)Cc1ccc(NC(=O)NC2CCC2)cc1)c1ccccc1,38.2
11,CNc1nc(N2CCN(C)C(CCO)C2)nc2c1CCC2 (stereo not given),2.44
12,Cc1ccc(NC2CCN(C(=O)CCC3CCCO3)CC2)nn1 (stereo not given),-3.33
13,Cc1ccc(CCC(=O)N2CCOCC2)cc1Cl,-6.51
14,CCCN1CCC[C@]2(CCC(=O)N2Cc2ccncc2)[C@H]1CC,-4.44
15,Clc1ccc(-c2c[nH]c([C@@H]3COCCN3)n2)cc1,-0.826
16,O=C(c1ccco1)N1C[C@H]2CCCN(CC3CC3)[C@H]2C1,-16.9
17,Cc1ccc(O)c(C(=O)NCCCS(=O)(=O)Cc2ccccc2)c1,-11.4
18,CN(Cc1nnc(C2CC2)o1)C1CCCN(c2cccnn2)C1 (stereo not given),-3.05
19,Cc1ccc(C(=O)O)cc1-c1cccc2c1CCNC2,-21
20,Cc1cc(C)n(C2CCCN(C(=O)c3ccc(NC4CC4)nc3)C2)n1 (stereo not given),-0.521
21,CCNC(=O)NCC(CC)(OC)c1ccccc1 (stereo not given),-5.55
22,O=C(c1ccc(Cl)cc1)N1CCc2nc(C(=O)N3CCCC3)sc2CC1,7.75
23,CNC(=O)CN1CCC(CN(C)Cc2ccccc2N(C)C)CC1,1.48

row,Structure (SMILES),cytotoxicity at 70.5 h [%]
1,O=C(NCCc1nnc2n1CCC2)NCC1(c2cccc(F)c2)CC1,-29.8
2,CN(C)C(=O)C1CCN(C2CCN(CC3CCC3)CC2)CC1,-1.7
3,COCCn1cc(C(=O)N2CCCC2c2cccc(F)c2)ccc1=O (stereo not given),-4.27
4,Cc1n[nH]c(C2CN(C(=O)c3cc4c(s3)CCCC4)CCO2)n1 (stereo not given),-4.81
5,Cc1oc(C)c(C(=O)NS(=O)(=O)c2ccc3c(c2)OCCCO3)c1C,-27.5
6,CC(C)N1CCOCC2(CCN(c3cnccn3)CC2)C1,-11.1
7,COCCN1CCCN(C(=O)c2scnc2C)CC1,-3.53
8,Cc1cccc(CS(=O)(=O)CC(=O)N(C)Cc2ccccc2F)c1,-6.9
9,O=S(=O)(CCNC1CCc2ncnn2C1)c1ccc(Cl)cc1 (stereo not given),-1.07
10,CCc1nn(-c2cc(Oc3cc(C)ccc3C)nc(C)n2)c(N)c1C#N,28.3
11,CCN(CC)c1ccc(CNC(=O)c2ccccn2)cn1,10.8
12,Cc1nc(C)n(CC2CCCN(CCNC(=O)OC(C)(C)C)C2)n1 (stereo not given),-0.801
13,CNC(=O)CCc1cccc(OC2CCCC2)c1,-12.2
14,CCCn1[nH]cc/c1=N\C(=O)CN1CCC[C@H]1CO,2.76
15,Cc1ccc(C(=O)N2CCc3c(COCC4CC4)cncc3C2)o1,18.4
16,Cc1n[nH]c(C)c1C1COCCN1C(=O)Cc1ccccc1F (stereo not given),-0.503
17,c1cncc(OCc2noc3c2CN(Cc2ccco2)CC3)c1,-17.4
18,Cc1cc(C(=O)N2CCCC(c3nccn3Cc3ccncc3)C2)no1 (stereo not given),-12.9
19,Cc1cc(C)nc(N2CCC(C(=O)Nc3ccc(C(C)C)cc3)CC2)n1,-2.09
20,Cn1ncc2c1CCCC2NCc1ccc(Cl)s1 (stereo not given),4.18
21,COc1ccccc1CC(C)N(C)S(C)(=O)=O (stereo not given),-6.61
22,Cc1ccc(N2CCN(C(=O)CCc3n[nH]c(C)n3)CC2=O)cc1,-8.56
23,CC(C)N1CCCC(C(=O)NCCc2csc(-c3ccncc3)n2)C1 (stereo not given),22

row,Structure (SMILES),cytotoxicity at 70.5 h [%]
1,CCN(Cc1noc(C)n1)C(=O)CCc1scnc1C,3.89
2,CC(=O)N1CCOC(c2cncc(CCC(N)=O)n2)C1 (stereo not given),7.13
3,COCC(=O)Nc1cnn(COc2ccc(F)cc2Cl)c1,2.16
4,Cc1ccc(NC(=O)CNc2ccn(CC(N)=O)n2)c(Cl)c1,-7.52
5,O=C(CCn1cnnn1)N1CCCC(CO)(CCc2ccccc2)C1 (stereo not given),18
6,Cc1ccc(C)c2c(C)c(C(=O)NCCC(=O)N3CCOCC3)oc12,-10.6
7,CC(=O)N1CCN(Cc2ccco2)CC2(CC(=O)N(C)C2)C1 (stereo not given),20.7
8,Cc1cccc(CN2C(=O)C[C@H]3[C@@H]2CCN3Cc2cccs2)n1,0.507
9,O=C1CCC2(CCOC2)CN1CCCOc1cccnc1 (stereo not given),0.321
10,CN(C)c1cc(N2CCN(c3ccccn3)CC2)ncn1,22.1
11,CC(C)Cn1c(=O)n(CCn2cc(Cl)cn2)c2cc(C(=O)O)cnc21,-7.3
12,Cc1cccc(C(=O)N2CCC3(CC(C(=O)N(C)C(C)C)=NO3)C2)c1 (stereo not given),-3.14
13,CS(=O)(=O)NCC1CCCN(C(=O)Nc2ccccc2N2CCCC2)C1 (stereo not given),-1.87
14,O=C(NCC1(CO)CC1)c1ccccc1Cl,-14.1
15,COCCNC(=O)c1cc(OC)ccc1Br,0.394
16,CN1CCC/C1=N\S(=O)(=O)c1ccc(NC(=O)c2ccsc2)cc1,-11.8
17,COc1ncc(C(=O)N2CCC(c3nc(C)n4ccsc34)CC2)cn1,24.2
18,CCc1oc(C(=O)N(C)Cc2ccncc2)cc1CN(CC)CC,-6.93
19,O=c1n(Cc2ccccc2F)nc2ncccn12,21
20,c1ccc2c(OCCN3CCn4c(nnc4C4CC4)C3)cccc2c1,2.06
21,Cc1nonc1NC(=O)C1SCCc2sccc21 (stereo not given),32.5
22,CNC(=O)c1cn[nH]c1C1CCCN1C(=O)c1cccnc1 (stereo not given),-4.17
23,Cc1ccnc(CC(C)N(C)c2cc(CN)nc(C)n2)c1 (stereo not given),-5.59
